Measurements as given in the supplement of paper PMC10307832.

What was measured:
Experiment in all cases: relative viability (nuclei count vs DMSO), 5 days (fraction); higher = more cells survive
[1] = system: NCI-H1975
Procedure, shortened: (§1)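 A single step with final 0.05% Triton X-100, 1% formaldehyde and 1 ug/ml Hoechst fixed the cells and stained nuclei 5 days after treatment. Lung cancer cell lines in 1536-well plates had been treated by pin tool the day after seeding with one drug alone or a fixed anchor-drug dose plus five library-drug doses (not always all listed) in √10 steps, and nuclei were counted on 4× images. Relative viability is the ratio of nuclei in treated wells to nuclei in vehicle wells, taken as the median of duplicate plates.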

[2] = system: NCI-H1437
Procedure, shortened: as §1

[3] = system: NCI-H23
Procedure, shortened: as §1

[4] = system: CAL-12T
Procedure, shortened: as §1

[5] = system: NCI-H727
Procedure, shortened: as §1

[6] = system: HCC-827
Procedure, shortened: as §1

[7] = system: NCI-H460
Procedure, shortened: as §1

[8] = system: NCI-H1755
Procedure, shortened: as §1

[9] = system: HOP-62
Procedure, shortened: as §1

[10] = system: HCC-366
Procedure, shortened: as §1

[11] = system: HARA
Procedure, shortened: as §1

[12] = system: A-427
Procedure, shortened: as §1

[13] = system: LCLC-103H
Procedure, shortened: as §1

[14] = system: NCI-H1355
Procedure, shortened: as §1

[15] = system: NCI-H1915
Procedure, shortened: as §1

[16] = system: NCI-H1395
Procedure, shortened: as §1

[17] = system: EMC-BAC-2
Procedure, shortened: as §1

[18] = system: NCI-H1792
Procedure, shortened: as §1

## CC1(C)CCC(c2ccc(Cl)cc2)=C(CN2CCN(c3ccc(C(=O)NS(=O)(=O)c4ccc(N[C@H](CCN5CCOCC5)CSc5ccccc5)c(S(=O)(=O)C(F)(F)F)c4)cc3)CC2)C1 [Navitoclax] + NC(=O)Nc1cc(-c2cccc(F)c2)sc1C(=O)N[C@H]1CCCNC1 [AZD7762] (partner 0.2 µM)
[1]; first compound 0.005 µM
  relative viability: 0.855
[1]; first compound 0.01581 µM
  relative viability: 0.799
[1]; first compound 0.05 µM
  relative viability: 0.713
[1]; first compound 0.1581 µM
  relative viability: 0.752
[1]; first compound 0.5 µM
  relative viability: 0.646
[2]; first compound 0.005 µM
  relative viability: 1.06
[2]; first compound 0.01581 µM
  relative viability: 1.23
[2]; first compound 0.05 µM
  relative viability: 1.06
[2]; first compound 0.1581 µM
  relative viability: 1.08
[2]; first compound 0.5 µM
  relative viability: 1.05
[3]; first compound 0.005 µM
  relative viability: 0.28
[3]; first compound 0.01581 µM
  relative viability: 0.33
[3]; first compound 0.05 µM
  relative viability: 0.291
[3]; first compound 0.1581 µM
  relative viability: 0.195
[3]; first compound 0.5 µM
  relative viability: 0.23
[4]; first compound 0.005 µM
  relative viability: 0.626
[4]; first compound 0.01581 µM
  relative viability: 0.593
[4]; first compound 0.05 µM
  relative viability: 0.627
[4]; first compound 0.1581 µM
  relative viability: 0.619
[4]; first compound 0.5 µM
  relative viability: 0.541
[5]; first compound 0.005 µM
  relative viability: 0.656
[5]; first compound 0.01581 µM
  relative viability: 0.595
[5]; first compound 0.05 µM
  relative viability: 0.539
[5]; first compound 0.1581 µM
  relative viability: 0.674
[5]; first compound 0.5 µM
  relative viability: 0.594
[6]; first compound 0.005 µM
  relative viability: 0.274
[6]; first compound 0.01581 µM
  relative viability: 0.188
[6]; first compound 0.05 µM
  relative viability: 0.186
[6]; first compound 0.1581 µM
  relative viability: 0.199
[6]; first compound 0.5 µM
  relative viability: 0.235
[7]; first compound 0.005 µM
  relative viability: 0.575
[7]; first compound 0.01581 µM
  relative viability: 0.622
[7]; first compound 0.05 µM
  relative viability: 0.322
[7]; first compound 0.1581 µM
  relative viability: 0.573
[7]; first compound 0.5 µM
  relative viability: 0.532
[8]; first compound 0.005 µM
  relative viability: 0.426
[8]; first compound 0.01581 µM
  relative viability: 0.462
[8]; first compound 0.05 µM
  relative viability: 0.322
[8]; first compound 0.1581 µM
  relative viability: 0.439
[8]; first compound 0.5 µM
  relative viability: 0.474
[9]; first compound 0.005 µM
  relative viability: 0.721
[9]; first compound 0.01581 µM
  relative viability: 0.694
[9]; first compound 0.05 µM
  relative viability: 0.514
[9]; first compound 0.1581 µM
  relative viability: 0.512
[9]; first compound 0.5 µM
  relative viability: 0.384
[10]; first compound 0.005 µM
  relative viability: 0.27
[10]; first compound 0.01581 µM
  relative viability: 0.296
[10]; first compound 0.1581 µM
  relative viability: 0.197
[10]; first compound 0.5 µM
  relative viability: 0.214
[11]; first compound 0.005 µM
  relative viability: 0.385
[11]; first compound 0.01581 µM
  relative viability: 0.444
[11]; first compound 0.05 µM
  relative viability: 0.212
[11]; first compound 0.1581 µM
  relative viability: 0.228
[11]; first compound 0.5 µM
  relative viability: 0.32
[12]; first compound 0.005 µM
  relative viability: 0.79
[12]; first compound 0.01581 µM
  relative viability: 0.822
[12]; first compound 0.05 µM
  relative viability: 0.639
[12]; first compound 0.1581 µM
  relative viability: 0.722
[12]; first compound 0.5 µM
  relative viability: 0.718
[13]; first compound 0.005 µM
  relative viability: 0.806
[13]; first compound 0.01581 µM
  relative viability: 0.839
[13]; first compound 0.05 µM
  relative viability: 0.736
[13]; first compound 0.1581 µM
  relative viability: 0.826
[13]; first compound 0.5 µM
  relative viability: 0.8
[14]; first compound 0.005 µM
  relative viability: 0.745
[14]; first compound 0.01581 µM
  relative viability: 0.728
[14]; first compound 0.05 µM
  relative viability: 0.588
[14]; first compound 0.1581 µM
  relative viability: 0.735
[14]; first compound 0.5 µM
  relative viability: 0.668
[15]; first compound 0.005 µM
  relative viability: 0.726
[15]; first compound 0.01581 µM
  relative viability: 0.697
[15]; first compound 0.05 µM
  relative viability: 0.657
[15]; first compound 0.1581 µM
  relative viability: 0.639
[15]; first compound 0.5 µM
  relative viability: 0.597
[16]; first compound 0.005 µM
  relative viability: 0.368
[16]; first compound 0.01581 µM
  relative viability: 0.41
[16]; first compound 0.05 µM
  relative viability: 0.357
[16]; first compound 0.1581 µM
  relative viability: 0.385
[16]; first compound 0.5 µM
  relative viability: 0.405
[17]; first compound 0.005 µM
  relative viability: 1.03
[17]; first compound 0.01581 µM
  relative viability: 1.26
[17]; first compound 0.05 µM
  relative viability: 1.07
[17]; first compound 0.1581 µM
  relative viability: 1.09
[17]; first compound 0.5 µM
  relative viability: 1.13
[18]; first compound 0.005 µM
  relative viability: 0.593
[18]; first compound 0.01581 µM
  relative viability: 0.77
[18]; first compound 0.1581 µM
  relative viability: 0.559
[18]; first compound 0.5 µM
  relative viability: 0.502
